The first test deals with MLKL phosphorylation (pMLKL) in HT29-L23 cells. As to the kind of experiment: MLKL Phosphorylation High-Content Assay. It is filed as cell-based. To be noted: Homo sapiens, 6 h, necroptosis induced with human TNFα, SMAC mimetic and Z-VAD, read-out: LE pMLKL HC IC50. How it is done:
Following 6 h incubation at 37° C. […] MLKL phosphorylation was detected using anti-MLKL (phospho […]) antibody (Abcam #ab187091) (1:1000 dilution in Blocking Buffer [PBS supplemented with 0.1% BSA]) with ON incubation at 4° C. […] Following another three cycles of washes in PBS, the microplates were sealed, and cellular images were acquired in the Cellomics ArrayScan VTI high-content imager equipped with an X1 camera. […] The image sets were analyzed using the Compartmental Analysis Bioapplication software (Cellomics). The level of MLKL phosphorylation was quantified as […].
In the case of `Cc1ccc(-c2ccn3nc(N)nc3c2)c(F)c1OCCC(F)(F)C(O)c1ccc(F)cc1` (racemic) [Example 66, 4-(3-(2-amino-[1,2,4]triazolo[1,5-a]pyridin-7-yl)-2-fluoro-6-methylphenoxy)-2,2-difluoro-1-(4-fluorophenyl)butan-1-ol], the IC50 – broadly, the concentration at which inhibition is half-maximal – turned out to be 0.3 nM.
The same measure, in the same setting: the value for `Nc1nc2cc(-c3cccc(OCCC(F)(F)C(O)c4ccccc4)c3F)ccn2n1` (racemic) [Example 69, 4-(3-(2-amino-[1,2,4]triazolo[1,5-a]pyridin-7-yl)-2-fluorophenoxy)-2,2-difluoro-1-phenylbutan-1-ol] was 3 nM; that for `Nc1nc2cc(-c3cccc(OCCC(F)(F)Oc4ccc(F)cc4)c3F)ccn2n1` [Example 65, 7-(3-(3,3-difluoro-3-(4-fluorophenoxy)propoxy)-2-fluorophenyl)-[1,2,4]triazolo[1,5-a]pyridin-2-amine] was 140 nM; that for `COc1ccc(OCCC(F)(F)C(C)(O)c2ccc(F)cc2)c(F)c1-c1ccn2nc(N)nc2c1` (racemic) [Example 22, 5-(3-(2-amino-[1,2,4]triazolo[1,5-a]pyridin-7-yl)-2-fluoro-4-methoxyphenoxy)-3,3-difluoro-2-(4-fluorophenyl)pentan-2-ol] was 0.9 nM.
On the same count and under the same terms, for `CC(O)(c1ccc(F)cc1)C(F)(F)CCOc1cnc(Cl)c(-c2ccn3nc(N)nc3c2)n1` (racemic) [Example 81, 5-((6-(2-amino-[1,2,4]triazolo[1,5-a]pyridin-7-yl)-5-chloropyrazin-2-yl)oxy)-3,3-difluoro-2-(4-fluorophenyl)pentan-2-ol] the value was 0.2 nM; for `CC(O)(c1ccc(F)cc1)C(F)(F)CCOc1cccc(-c2ccn3nc(N)nc3c2)c1C(F)F` (single isomer, unassigned) [Example 23, 5-(3-(2-amino-[1,2,4]triazolo[1,5-a]pyridin-7-yl)-2-(difluoromethyl)phenoxy)-3,3-difluoro-2-(4-fluorophenyl)pentan-2-ol], 6000 nM.

The same test, now with this note: necroptosis induced with human TNFα, SMAC mimetic and Z-VAD, 6 h, read-out: LE pMLKL HC IC50.
Take `CC(O)(c1ccc(F)cc1)C(F)CCOc1c(F)ccc(-c2ccn3nc(N)nc3c2)c1F` (single isomer, unassigned) [Example 96, 5-(3-(2-amino-[1,2,4]triazolo[1,5-a]pyridin-7-yl)-2,6-difluorophenoxy)-3-fluoro-2-(4-fluorophenyl)pentan-2-ol]: the IC50 is 2 nM.
On the same count and under the same terms, the value for `Nc1nc2cc(-c3cc(F)c(F)c(OCCC(F)C(O)c4ccc(F)cc4)c3)ccn2n1` (single isomer, unassigned) [Example 117, 4-(5-(2-amino-[1,2,4]triazolo[1,5-a]pyridin-7-yl)-2,3-difluorophenoxy)-2-fluoro-1-(4-fluorophenyl)butan-1-ol] was 580 nM; that for `[2H]C([2H])(CC(F)(F)C(C)(O)c1ccc(F)cc1)Oc1cccc(-c2ccn3nc(N)nc3c2)c1F` (single isomer, unassigned) [Example 12, 5-(3-(2-amino-[1,2,4]triazolo[1,5-a]pyridin-7-yl)-2-fluorophenoxy)-3,3-difluoro-2-(4-fluorophenyl)pentan-5,5-d2-2-ol] was 1 nM.
On the same count and under the same terms, the value for `CC(O)(c1ccc(F)cc1)C(F)CCOc1c(F)ccc(-c2ccn3nc(N)nc3c2)c1F` (single isomer, unassigned) [Example 95, 5-(3-(2-amino-[1,2,4]triazolo[1,5-a]pyridin-7-yl)-2,6-difluorophenoxy)-3-fluoro-2-(4-fluorophenyl)pentan-2-ol] was 4 nM; that for `Nc1nc2cc(-c3ccc(F)c(OCCC(F)C(O)c4ccc(F)cc4)c3F)ccn2n1` (single isomer, unassigned) [Example 105, 4-(3-(2-amino-[1,2,4]triazolo-[1,5-a]pyridin-7-yl)-2,6-difluorophenoxy)-2-fluoro-1-(4-fluorophenyl)butan-1-ol] was 12 nM; that for `Nc1nc2cc(-c3ccc(Cl)c(OCCC(F)C(O)c4ccc(F)cc4)c3F)ccn2n1` (single isomer, unassigned) [Example 100, 4-(3-(2-amino-[1,2,4]triazolo[1,5-a]pyridin-7-yl)-6-chloro-2-fluorophenoxy)-2-fluoro-1-(4-fluorophenyl)butan-1-ol] was 6 nM.
Same read-out and setting: the value for `Nc1nc2cc(-c3cccc(OCCC(F)C(O)c4ccc(F)cc4)c3F)ccn2n1` (single isomer, unassigned) [Example 87, 4-(3-(2-amino-[1,2,4]triazolo[1,5-a]pyridin-7-yl)-2-fluorophenoxy)-2-fluoro-1-(4-fluorophenyl)butan-1-ol] was 0.4 nM.
For `Nc1nc2cc(-c3ccc(F)c(OCCC(F)(F)C(O)c4ccc(F)cc4)c3)ccn2n1` (single isomer, unassigned) [Example 54, 4-(5-(2-amino-[1,2,4]triazolo[1,5-a]pyridin-7-yl)-2-fluorophenoxy)-2,2-difluoro-1-(4-fluorophenyl)butan-1-ol], the IC50 is 32 nM.
Turning to `Cc1ccc(-c2ccn3nc(N)nc3c2)c(F)c1OCCC(F)C(O)c1ccc(F)cc1` (single isomer, unassigned) [Example 107, 4-(3-(2-amino-[1,2,4]triazolo[1,5-a]pyridin-7-yl)-2-fluoro-6-methylphenoxy)-2-fluoro-1-(4-fluorophenyl)butan-1-ol], the IC50 is 1.2 nM.
Still for that read-out and setting: the value for `Cc1ccc(-c2ccn3nc(N)nc3c2)c(F)c1OCCC(F)C(F)(F)c1ccc(F)cc1` (single isomer, unassigned) [Example 121, 7-(2-fluoro-4-methyl-3-(3,4,4-trifluoro-4-(4-fluorophenyl)butoxy)phenyl)-[1,2,4]triazolo[1,5-a]pyridin-2-amine] was 89 nM; that for `CC(O)(c1ccc(F)cc1)C(F)(F)CCOc1cc(F)cc(-c2ccn3nc(N)nc3c2)c1F` (single isomer, unassigned) [Example 10, 5-(3-(2-amino-[1,2,4]triazolo[1,5-a]pyridin-7-yl)-2,5-difluorophenoxy)-3,3-difluoro-2-(4-fluorophenyl)pentan-2-ol] was 1 nM; that for `Nc1nc2cc(-c3ccc(F)c(OCCC(F)C(O)c4ccc(F)cc4)c3F)ccn2n1` (single isomer, unassigned) [Example 104, 4-(3-(2-amino-[1,2,4]triazolo-[1,5-a]pyridin-7-yl)-2,6-difluorophenoxy)-2-fluoro-1-(4-fluorophenyl)butan-1-ol] was 2.8 nM.
Same read-out and setting: for `CC(CC(F)(F)C(C)(O)c1ccc(F)cc1)Oc1c(F)ccc(-c2ccn3nc(N)nc3c2)c1F` (single isomer, unassigned) [Example 127, 5-(3-(2-amino-[1,2,4]triazolo[1,5-a]pyridin-7-yl)-2,6-difluorophenoxy)-3,3-difluoro-2-(4-fluorophenyl)hexan-2-ol] the value was 1.1 nM.
Still for that read-out and setting: the value for `CC(O)(c1ccc(F)cc1)C(F)CCOc1cc(-c2ccn3nc(N)nc3c2)cc(F)c1F` (single isomer, unassigned) [Example 93, 5-(5-(2-amino-[1,2,4]triazolo[1,5-a]pyridin-7-yl)-2,3-difluorophenoxy)-3-fluoro-2-(4-fluorophenyl)pentan-2-ol] was 140 nM; that for `Nc1nc2cc(-c3cccc(OCCC(F)(F)C(O)c4ccc(F)cc4)c3F)ccn2n1` (single isomer, unassigned) [Example 72, 4-(3-(2-amino-[1,2,4]triazolo[1,5-a]pyridin-7-yl)-2-fluorophenoxy)-2,2-difluoro-1-(4-fluorophenyl)butan-1-ol] was 1 nM; that for `Nc1nc2cc(-c3ccc(Cl)c(OCCC(F)C(O)c4ccc(F)cc4)c3F)ccn2n1` (single isomer, unassigned) [Example 83, 4-(3-(2-amino-[1,2,4]triazolo[1,5-a]pyridin-7-yl)-6-chloro-2-fluorophenoxy)-2-fluoro-1-(4-fluorophenyl)butan-1-ol] was 26 nM.
In the case of `CC(O)(c1ccccc1F)C(F)(F)CCOc1c(F)ccc(-c2ccn3nc(N)nc3c2)c1F` (single isomer, unassigned) [Example 125, 5-(3-(2-amino-[1,2,4]triazolo[1,5-a]pyridin-7-yl)-2,6-difluorophenoxy)-3,3-difluoro-2-(2-fluorophenyl)pentan-2-ol], the IC50 worked out at 0.6 nM.
The same measure, in the same setting: the value for `Nc1nc2cc(-c3ccc(C(F)(F)F)c(OCCC(F)C(O)c4ccc(F)cc4)c3F)ccn2n1` (single isomer, unassigned) [Example 113, 4-(3-(2-amino-[1,2,4]triazolo[1,5-a]pyridin-7-yl)-2-fluoro-6-(trifluoromethyl)phenoxy)-2-fluoro-1-(4-fluorophenyl)butan-1-ol] was 220 nM; that for `CC(O)(c1ccc(F)cc1)C(F)(F)CCOc1ccc(F)c(-c2ccn3nc(N)nc3c2)n1` (single isomer, unassigned) [Example 77, 5-((6-(2-amino-[1,2,4]triazolo[1,5-a]pyridin-7-yl)-5-fluoropyridin-2-yl)oxy)-3,3-difluoro-2-(4-fluorophenyl)pentan-2-ol] was 430 nM; that for `CC(O)(c1ccccc1F)C(F)(F)CCOc1c(F)ccc(-c2ccn3nc(N)nc3c2)c1F` (single isomer, unassigned) [Example 124, 5-(3-(2-amino-[1,2,4]triazolo[1,5-a]pyridin-7-yl)-2,6-difluorophenoxy)-3,3-difluoro-2-(2-fluorophenyl)pentan-2-ol] was 160 nM.
In the case of `Nc1nc2cc(-c3cccc(OCCC(F)(F)C(N)c4ccc(F)cc4)c3F)ccn2n1` (single isomer, unassigned) [Example 61, 7-(3-(4-amino-3,3-difluoro-4-(4-fluorophenyl)butoxy)-2-fluorophenyl)-[1,2,4]triazolo[1,5-a]pyridin-2-amine], the IC50 is 0.6 nM.

Source of the values: patent publication US20260217711A1, “TRIAZOLOPYRIDINYL ETHER LINKED COMPOUNDS AS KINASE INHIBITORS” (Bristol-Myers Squibb Company, priority 2023, published 2026).
